Source: patent US8063018B2, “Bivalent thrombin binding molecules comprising linkers” (National Research Council of Canada, priority 2004, dated 2011)

Target: thrombin (Homo sapiens, UniProt P00734)
Test: Fibrinogen clotting assay catalyzed by thrombin
Type: biochemical
Details: concentration needed to double the clotting time
Protocol: Curves represent OD420 time course after the addition of 0.6 nM thrombin in the presence of (♦) 0 nM; (◯) 0.5 nM; (□) 1 nM; (Δ) 1.5 nM; (⋄) 2.5 nM; (●) 3.75 nM; (▪) 6.25 nM; and (▴) […] of the inhibitor with linker (GS)n and n=2 (SEQ. ID. NO. 50) (a); n=4 (SEQ. ID. NO. 51) (b); n=6 (SEQ. ID. NO. 52) (c); n=8 (SEQ. ID. NO. 53) (d); n=10 (SEQ. ID. NO. 54) (e); and in the presence of (♦) 0 nM; (◯) 1 nM; (□) 2 nM; (Δ) 4 nM; (⋄) 6 nM; (●) 10 nM; (▪) 15 nM; and (▴) 25 nM of the inhibitor with linker (GS)n and n=12 (SEQ. ID. NO. 55) (f); n=14 (SEQ. ID. NO. 56) (g), at 37° C. The onset clotting time was determined as an intersection of the baseline and the extrapolated linear portion of the OD change curve. […] Curves (i) represent OD420 time course in the presence of (A) 0 nM; (◯) 1 nM; (□) 2 nM; (Δ) 4 nM; (⋄) 6 nM; and (●) 15 nM of the inhibitor with linker […] (SEQ. ID. NO. 103), at 37° C. […] represent OD420 time course in the presence of (◯) 0 nM; (□) 2 nM; (Δ) 4 nM; (⋄) 6 nM; (●) 8 nM; (▪) 10 nM; (▴) 12 nM; and (♦) 15 nM; of the inhibitor with linker […] (SEQ. ID. NO. 58) at 25° C. Curves (k) represent OD420 time course in the presence of (◯) 0 nM; (□) 0.5 nM; (Δ) 1 nM; (⋄) 2 nM; (●) 3 nM; (▪) 4 nM; (▴) 5 nM; and (♦) 6 nM; of the inhibitor with linker […] (SEQ. ID. NO. 105) at 37° C. Curves (I) represent OD420 time course in the presence of (◯) 0 nM; (□) 0.25 nM; (Δ) 0.5 nM; (⋄) 1 nM; (●) 1.5 nM; (▪) 2 nM; and (▴) 2.5 nM; of the inhibitor with linker […] (SEQ. ID. NO. 104) at 37° C. Curves (m) represent OD420 time course in the presence of (◯) 0 nM; (□) 2 nM; (Δ) 4 nM; (⋄) 6 nM; (●) 8 nM; (▴) 10 nM; and (A) 12 nM; of the inhibitor with linker […] (SEQ. ID. NO. 106) at 37° C. Curves (n) represent OD420 time course in the presence of (◯) 0 nM; (□) 1 nM; (Δ) 2 nM; (⋄) 3 nM; (●) 4 nM; (▪) 5 nM; (▴) 6 nM; and (♦) 7 nM; of the inhibitor with linker […] (SEQ. ID. NO. 107) at 37° C. Curves (o) represent OD420 time course in the presence of (◯) 0 nM; (□) 4 nM; and (Δ) 8 nM; of the inhibitor with linker GQSHNR (SEQ. ID. NO. 108) at 37° C.
Other experimental conditions were as used for the assays described in FIG. 2.
Clotting assays were carried out by use of the protocols described previously (DiMaio and others, 1990, 21698-21703; Witting and others, 1992, 737-743). The assay employs bovine plasma fibrinogen dissolved at 0.1% in 50 mM Tris-Cl, 100 mM NaCl, 0.1% PEG-8000 at pH 7.6 (i.e. the clotting buffer). Each assay mixture contained a certain concentration of the peptide, and the reaction was started by the addition of human thrombin to a final concentration of 0.6-1.2 nM. Optical absorbance increase at 420 nm caused by fibrin clot formation was measured at 25° C. or 37° C. using the Spectramax plate reader. The onset clotting time was determined as an intersection of the baseline and the extrapolated linear portion of the OD change curve. The concentration of a peptide needed to double the clotting time was defined as IC50 (DiMaio and others, 1990, 21698-21703). Kinetic amidolytic curves were obtained in clotting buffer at 25° C. using eight inhibitor concentrations and three to five concentrations of the chromogenic substrate S-2238 (Chromogenix) (DiMaio and others, 1990, 21698-21703). Inhibition constants were extracted from Lineweaver-Burk equation by using weighted linear regression. Errors in Ki determination were estimated by using Monte-Carlo sampling with 1-3% variance of the experimental points.

## CC[C@H](C)[C@H](NC(=O)[C@H](CCC(=O)O)NC(=O)[C@H](CCC(=O)O)NC(=O)[C@H](Cc1ccccc1)NC(=O)[C@H](CC(=O)O)NC(=O)CNC(=O)[C@H](CO)NC(=O)CNC(=O)[C@H](CO)NC(=O)CNC(=O)[C@H]1CCCCN1C(=O)[C@H](CCCN=C(N)N)NS(=O)(=O)c1ccc(C(C)(C)C)cc1)C(=O)N1CCC[C@H]1C(=O)N[C@@H](CCC(=O)O)C(=O)N[C@@H](CCC(=O)O)C(=O)N[C@@H](Cc1ccc(O)cc1)C(=O)N[C@@H](CC(C)C)C(=O)N[C@@H](CCC(N)=O)C(=O)O [P3149]
IC50, nM (37° C.), 37° C.
  IC50: 9.7 ± 0.7 nM

## CC[C@H](C)[C@H](NC(=O)[C@H](CCC(=O)O)NC(=O)[C@H](CCC(=O)O)NC(=O)[C@H](Cc1ccccc1)NC(=O)[C@H](CC(=O)O)NC(=O)CNC(=O)[C@H](CO)NC(=O)CNC(=O)[C@H](CO)NC(=O)CNC(=O)[C@H](CO)NC(=O)CNC(=O)[C@H](CO)NC(=O)CNC(=O)[C@H](CO)NC(=O)CNC(=O)[C@H](CO)NC(=O)CNC(=O)[C@H](CO)NC(=O)CNC(=O)[C@H](CO)NC(=O)CNC(=O)[C@H]1CCCCN1C(=O)[C@H](CCCN=C(N)N)NS(=O)(=O)c1ccc(C(C)(C)C)cc1)C(=O)N1CCC[C@H]1C(=O)N[C@@H](CCC(=O)O)C(=O)N[C@@H](CCC(=O)O)C(=O)N[C@@H](Cc1ccc(O)cc1)C(=O)N[C@@H](CC(C)C)C(=O)N[C@@H](CCC(N)=O)C(=O)O [P3152]
IC50, nM (37° C.), 37° C.
  IC50: 0.7 ± 0.1 nM

## CC[C@H](C)[C@H](NC(=O)[C@H](CCC(=O)O)NC(=O)[C@H](CCC(=O)O)NC(=O)[C@H](Cc1ccccc1)NC(=O)[C@H](CC(=O)O)NC(=O)CNC(=O)[C@H](CO)NC(=O)[C@@H](NC(=O)[C@H](CCCCN)NC(=O)[C@H](CCC(=O)O)NC(=O)[C@H](Cc1ccc(O)cc1)NC(=O)[C@H](Cc1c[nH]cn1)NC(=O)[C@@H]1CCCN1C(=O)[C@H](CO)NC(=O)CNC(=O)[C@H](CO)NC(=O)[C@@H](NC(=O)[C@H](CCCCN)NC(=O)[C@H](CCC(=O)O)NC(=O)[C@H](Cc1ccc(O)cc1)NC(=O)[C@H](Cc1c[nH]cn1)NC(=O)[C@@H]1CCCN1C(=O)[C@H](CO)NC(=O)CNC(=O)[C@H]1CCCCN1C(=O)[C@H](CCCNC(=N)N)NS(=O)(=O)c1ccc(C(C)(C)C)cc1)C(C)C)C(C)C)C(=O)N1CCC[C@H]1C(=O)N[C@@H](CCC(=O)O)C(=O)N[C@@H](CCC(=O)O)C(=O)N[C@@H](Cc1ccc(O)cc1)C(=O)N[C@@H](CC(C)C)C(=O)N[C@@H](CCC(N)=O)C(=O)O [P3161]
IC50, nM (25° C.), 25° C.
  IC50: 0.7 nM

## CC[C@H](C)[C@H](NC(=O)[C@H](CCC(=O)O)NC(=O)[C@H](CCC(=O)O)NC(=O)[C@H](Cc1ccccc1)NC(=O)[C@H](CC(=O)O)NC(=O)CNC(=O)[C@H](CO)NC(=O)[C@@H](NC(=O)[C@H](CCCCN)NC(=O)[C@H](CCC(=O)O)NC(=O)[C@H](Cc1ccc(OP(=O)(O)O)cc1)NC(=O)[C@H](Cc1c[nH]cn1)NC(=O)[C@@H]1CCCN1C(=O)[C@H](CO)NC(=O)CNC(=O)[C@H](CO)NC(=O)[C@@H](NC(=O)[C@H](CCCCN)NC(=O)[C@H](CCC(=O)O)NC(=O)[C@H](Cc1ccc(OP(=O)(O)O)cc1)NC(=O)[C@H](Cc1c[nH]cn1)NC(=O)[C@@H]1CCCN1C(=O)[C@H](CO)NC(=O)CNC(=O)[C@H]1CCCCN1C(=O)[C@H](CCCNC(=N)N)NS(=O)(=O)c1ccc(C(C)(C)C)cc1)C(C)C)C(C)C)C(=O)N1CCC[C@H]1C(=O)N[C@@H](CCC(=O)O)C(=O)N[C@@H](CCC(=O)O)C(=O)N[C@@H](Cc1ccc(O)cc1)C(=O)N[C@@H](CC(C)C)C(=O)N[C@@H](CCC(N)=O)C(=O)O [P3162]
IC50, nM (25° C.), 25° C.
  IC50: 19 ± 1 nM
